This assay has as its target T1, VEGFR-2 (Homo sapiens, UniProt P35968).
T1 construct: gene KDR
The experiment in a line: in vitro VEGFR-2 enzyme inhibition assay. In kind it is biochemical.

We go through one compound from paper PMC8667897, “Natural inspired piperine-based ureas and amides as novel antitumor agents towards breast cancer” (Journal of Enzyme Inhibition and Medicinal Chemistry, 2021).

T1 sequence (P35968 20-1356): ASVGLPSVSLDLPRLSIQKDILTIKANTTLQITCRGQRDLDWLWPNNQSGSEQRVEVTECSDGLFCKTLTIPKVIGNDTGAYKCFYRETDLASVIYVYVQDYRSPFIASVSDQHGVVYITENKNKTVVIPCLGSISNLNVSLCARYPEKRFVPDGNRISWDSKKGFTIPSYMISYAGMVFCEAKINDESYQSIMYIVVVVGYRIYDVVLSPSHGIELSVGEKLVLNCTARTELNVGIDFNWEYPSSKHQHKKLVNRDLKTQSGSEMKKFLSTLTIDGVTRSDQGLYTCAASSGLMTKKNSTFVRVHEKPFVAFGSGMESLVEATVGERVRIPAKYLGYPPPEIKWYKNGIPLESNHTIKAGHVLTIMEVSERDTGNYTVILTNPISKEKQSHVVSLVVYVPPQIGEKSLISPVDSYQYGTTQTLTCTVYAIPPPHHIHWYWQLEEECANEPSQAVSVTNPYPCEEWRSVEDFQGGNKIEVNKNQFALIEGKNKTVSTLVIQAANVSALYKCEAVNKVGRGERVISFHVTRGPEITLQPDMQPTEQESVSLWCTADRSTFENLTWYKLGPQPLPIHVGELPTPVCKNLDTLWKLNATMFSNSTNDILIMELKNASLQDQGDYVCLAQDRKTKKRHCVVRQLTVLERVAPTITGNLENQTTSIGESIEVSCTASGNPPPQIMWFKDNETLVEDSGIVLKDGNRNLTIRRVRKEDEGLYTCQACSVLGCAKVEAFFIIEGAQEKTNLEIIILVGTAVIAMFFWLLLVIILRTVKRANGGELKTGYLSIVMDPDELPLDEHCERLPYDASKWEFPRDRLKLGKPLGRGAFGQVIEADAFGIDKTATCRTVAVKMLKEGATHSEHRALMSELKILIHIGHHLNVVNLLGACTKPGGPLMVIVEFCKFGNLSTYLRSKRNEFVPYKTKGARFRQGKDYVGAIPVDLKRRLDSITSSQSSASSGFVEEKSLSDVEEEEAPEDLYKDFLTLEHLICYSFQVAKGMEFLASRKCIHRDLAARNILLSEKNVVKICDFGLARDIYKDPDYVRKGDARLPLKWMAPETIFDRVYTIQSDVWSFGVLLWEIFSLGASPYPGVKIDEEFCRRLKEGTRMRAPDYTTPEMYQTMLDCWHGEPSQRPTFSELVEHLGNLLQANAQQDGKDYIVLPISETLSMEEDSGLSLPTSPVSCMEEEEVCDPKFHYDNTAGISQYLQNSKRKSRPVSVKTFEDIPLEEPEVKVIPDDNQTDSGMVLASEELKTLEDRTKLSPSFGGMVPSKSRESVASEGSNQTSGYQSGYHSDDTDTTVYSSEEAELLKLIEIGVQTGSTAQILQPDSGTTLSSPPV

Regarding `O=C(N/C=C/C=C/c1ccc2c(c1)OCO2)Nc1ccc(Cl)cc1` [8q, 1-((1E,3E)-4-(Benzo[d]1,3dioxol-5-yl)buta-1,3-dien-1-yl)-3–(4-chlorophenyl)urea], the midpoint of inhibition, the IC50, lay at 231 ± 5 nM.
